Results: EP0504335B1, “A FIBRONECTIN BINDING PEPTIDE” (priority 1990, dated 1997)
Peptide text beside a SMILES is read from it.

What was measured:
Human fibronectin = format: binding; conditions: for IC50: read-out: concentration eliciting a 50% inhibition of fibronectin binding
spirochetes = conditions: cited from earlier work
Trypanosoma cruzi = conditions: Ouaissi et al., 1986; cited from earlier work
Treponema palladium = conditions: Thomas et al., 1985b; cited from earlier work

Molecule: CC(C)C[C@H](NC(=O)[C@@H](NC(=O)[C@H](CC(=O)O)NC(=O)[C@H](CCC(=O)O)NC(=O)[C@H](CCC(=O)O)NC(=O)[C@H](Cc1ccccc1)NC(=O)[C@H](CC(=O)O)NC(=O)[C@@H](NC(=O)[C@H](CO)NC(=O)[C@H](CC(N)=O)NC(=O)[C@H](Cc1c[nH]cn1)NC(=O)CNC(=O)CNC(=O)[C@@H](N)Cc1ccccc1)C(C)C)[C@@H](C)O)C(=O)N1CCC[C@H]1C(=O)N[C@@H](CCCCN)C(=O)O [Peptide S21-36] (H-FGGHNSVDFEEDTLPK-OH)
- fold less effective than S20-36 (Human fibronectin): about 10 fold

Molecule: RGDS
- attachment of spirochetes to cultured human cells, in words (spirochetes): blocked
- binding of fibronectin to Trypanosoma cruzi, in words (Trypanosoma cruzi): prevented
- binding of fibronectin to Treponema palladium, in words (Treponema palladium): prevented

Molecule: CC(C)[C@H](NC(=O)[C@H](CO)NC(=O)[C@H](CC(N)=O)NC(=O)[C@H](Cc1c[nH]cn1)NC(=O)CNC(=O)CNC(=O)[C@H](Cc1ccccc1)NC(=O)[C@H](CCC(N)=O)NC(=O)[C@H](Cc1ccc(O)cc1)NC(=O)[C@H](CO)NC(=O)[C@@H]1CCCN1)C(=O)N[C@@H](CC(=O)O)C(=O)N[C@@H](Cc1ccccc1)C(=O)N[C@@H](CCC(=O)O)C(=O)N[C@@H](CCC(=O)O)C(=O)N[C@@H](CC(=O)O)C(=O)N[C@H](C(=O)O)[C@@H](C)O [Peptide S17-33] (H-PSYQFGGHNSVDFEEDT-OH)
- inhibitory activity (inhibition of ^125I-HFN binding to S. aureus 8325-4), in words (Human fibronectin): dramatic recovery of activity
- IC50 (Human fibronectin): 100 µM

Molecule: CC(C)C[C@H](NC(=O)[C@@H](NC(=O)[C@H](CC(=O)O)NC(=O)[C@H](CCC(=O)O)NC(=O)[C@H](CCC(=O)O)NC(=O)[C@H](Cc1ccccc1)NC(=O)[C@H](CC(=O)O)NC(=O)[C@@H](NC(=O)[C@H](CO)NC(=O)[C@H](CC(N)=O)NC(=O)[C@H](Cc1c[nH]cn1)NC(=O)CNC(=O)CNC(=O)[C@H](Cc1ccccc1)NC(=O)[C@@H](N)CCC(N)=O)C(C)C)[C@@H](C)O)C(=O)N1CCC[C@H]1C(=O)N[C@@H](CCCCN)C(=O)O [Peptide S20-36] (H-QFGGHNSVDFEEDTLPK-OH)
- IC50 (Human fibronectin): 200 µM

Molecule: CC[C@H](C)[C@H](NC(=O)[C@H](CCC(=O)O)NC(=O)[C@@H](NC(=O)[C@H](Cc1c[nH]cn1)NC(=O)[C@H](CCCCN)NC(=O)[C@H](CC(N)=O)NC(=O)[C@@H](N)Cc1ccccc1)[C@@H](C)O)C(=O)N[C@H](C(=O)N[C@@H](CCC(=O)O)C(=O)N[C@@H](CCC(=O)O)C(=O)N[C@@H](CC(=O)O)C(=O)N[C@H](C(=O)N[C@@H](CC(N)=O)C(=O)N[C@@H](CCCCN)C(=O)N[C@@H](CC(=O)O)C(=O)N[C@@H](CCCCN)C(=O)N1CCC[C@H]1C(=O)N[C@@H](CO)C(=O)N[C@@H](Cc1ccc(O)cc1)C(=O)N[C@@H](CCC(N)=O)C(=O)N[C@@H](Cc1ccccc1)C(=O)NCC(=O)NCC(=O)N[C@@H](Cc1c[nH]cn1)C(=O)N[C@@H](CC(N)=O)C(=O)N[C@@H](CO)C(=O)N[C@H](C(=O)N[C@@H](CC(=O)O)C(=O)N[C@@H](Cc1ccccc1)C(=O)N[C@@H](CCC(=O)O)C(=O)N[C@@H](CCC(=O)O)C(=O)N[C@@H](CC(=O)O)C(=O)N[C@H](C(=O)N[C@@H](CC(C)C)C(=O)N1CCC[C@H]1C(=O)N[C@@H](CCCCN)C(=O)N[C@H](C(=O)O)C(C)C)[C@@H](C)O)C(C)C)[C@@H](C)O)[C@@H](C)CC [Peptide D3] (H-FNKHTEIIEEDTNKDKPSYQFGGHNSVDFEEDTLPKV-OH)
- inhibitory activity (inhibition of ^125I-HFN binding to S. aureus 8325-4), in words (Human fibronectin): effective inhibitors

Molecule: CC(C)C[C@H](NC(=O)[C@@H](NC(=O)[C@H](CC(=O)O)NC(=O)[C@H](CCC(=O)O)NC(=O)[C@H](CCC(=O)O)NC(=O)[C@H](Cc1ccccc1)NC(=O)[C@H](CC(=O)O)NC(=O)[C@@H](NC(=O)[C@H](CO)NC(=O)[C@H](CC(N)=O)NC(=O)[C@H](Cc1c[nH]cn1)NC(=O)CNC(=O)CNC(=O)[C@H](Cc1ccccc1)NC(=O)[C@H](CCC(N)=O)NC(=O)[C@H](Cc1ccc(O)cc1)NC(=O)[C@H](CO)NC(=O)[C@@H]1CCCN1C(=O)[C@@H](N)CCCCN)C(C)C)[C@@H](C)O)C(=O)N1CCC[C@H]1C(=O)N[C@@H](CCCCN)C(=O)O [Peptide S16-36] (H-KPSYQFGGHNSVDFEEDTLPK-OH)
- IC50 (Human fibronectin): 10 µM
